Test results published in patent US20120245229A1, “METHOD FOR TREATING NEUROPATHIC PAIN” (priority 2009, published 2012).

What was measured:
CRG-induced edema = test: Carrageenan paw edema (paw volume, plethysmometer); format: in vivo, mice; conditions: intraplantar pretreatment; 4 h after CRG injection
Description: Measurement of paw volume. Paw swelling (edema) after carrageenan injection was determined by water displacement plethysmometer (Ugo Basile, Italy). The Plethysmometer is a microcontrolled volume meter, specially designed for accurate measurement of the rat/mouse paw swelling. It consists of a water filled Perspex cell into which the paw is dipped. A transducer of original design records small differences in water level, caused by volume displacement.

neutrophil infiltration = test: Myeloperoxidase (MPO) assay of neutrophil infiltration in the inflamed paw; format: in vivo, mice; conditions: intraplantar pretreatment; 4 h after CRG injection
Description: Myeloperoxidase assay. Paw inflammation is associated with infiltration of neutrophils (polymorphonuclear cells), and myeloperoxidase (MPO) activity is often used to quantify neutrophil activation to evaluate the magnitude of paw inflammation. To determine MPO assay, fresh skin tissues were suspended in phosphate buffer and homogenized. The suspension was centrifuged and the supernatant was assayed for MPO activity using a MPO Activity Assay Kit (Northwest Life Science Specialties, LLC). Each reaction was performed according to manufacturer's protocol. Briefly, hypochlorous acid (HOCl) is formed from MPO catalyzed reaction between chloride and hydrogen peroxide. HOCl is rapidly trapped by β-amino acid taurine to form a stable oxidant taurine chloramine. Taurine chloramine is then allowed to react with 5-thio-2-nitrobenzoic acid (TNB). TNB has a chromophore that has maximal absorbance at 412 nm while its reaction product with taurin chloramine is colorless. The color change is detected by spectrophotometry. By following the decrease of absorbance at 412 nm, MPO activity is measured. One unit is the amount of MPO that can produce 1.0 nmole of taurine chloramine at pH 6.5 and 25° C. during 30 minutes in the presence of 100 mM chloride and 100 μM of hydrogen peroxide.

[1] = test system: phosphorylation of ERK (pERK); test: ERK phosphorylation (pERK) in cultured DRG neurons; format: cell-based, mice; conditions: dissociated DRG neurons; RvE1 10 ng/ml; TNF-α 10 ng/ml; capsaicin 500 nM
Description: Primary DRG culture. DRGs were aseptically removed from 4-week old mice and digested them first with collagenase (1.25 mg/ml)/dispase-II (2.4 units/ml) at 37° C. for 90 min then with 0.25% trypsin for 8 min at 37° C. DRG cells were mechanically dissociated with a flame polished Pasteur pipette in the presence of 0.05% DNAse I and plated these cells onto poly-D-lysine and laminin-coated slide chambers. DRG cells were grown in a neurobasal defined medium (with 2% B27 supplement, Invitrogen) in the presence of NGF (50 ng/ml) for 24 h and replaced the medium with NGF-free medium before stimulation. For immunocytochemistry, DRG cells were fixed with 4% paraformaldehyde for 30 min and incubated the cells with pERK primary antibody (rabbit, Cell signaling, 1:500) overnight.
Resolvins were also used for intraplantar injection. RvD1 or RvE1 was injected into the plantar surface of a hindapaw [20 ng, 20 μl , in 1% ethanol (Supplementary FIG. 5a, 5b) or in 10% ethanol (FIG. 2e, Supplementary FIG. 1d)]. […]
pERK immunocytochemistry in DRG neurons: DRG cells grown in slide chambers were fixed with 4% paraformaldehyde for 30 min and incubated with pERK primary antibody (Rabbit, Cell Signaling, 1:500) at 4° C. overnight. The stained cells were examined with a Nikon fluorescence microscope, and images in 3 randomly-selected optic fields from each chamber were captured with a CCD Spot camera. […]

[2] = test system: paw incision-induced postoperative pain; test: Postoperative pain model induced by hindpaw incision; format: in vivo, mice; conditions: postoperative pain model induced by surgical incision
Description: Animals and pain models. Adult CD1 mice (male, 25-32 g) were used for most experiments. Knockout mice were used lacking TNFR1/II (Tnfrsf1a/1b^−/−) and TRPV1 (Trpv1^−/−) and C57BL/6 wild-type control mice, all from Jackson, for some experiments. All animal procedures performed in this study were approved by the Harvard Medical Area Standing Committee on Animals. 20 μl of diluted formalin (5%), carrageenan (CRG, 1%), or complete Freund's adjuvant (CFA) were injected into the plantar surface of a hindpaw to produce acute, persistent, or chronic inflammatory pain, respectively. Postoperative pain was also produced through hindpaw incision^36 and neuropathic pain by ligation of the spinal nerve^37.
Behavioral analysis. Mice were habituated in the testing environment for two days and performed behavioral testing in a blinded manner. Formalin-evoked spontaneous inflammatory pain was assessed by measuring duration (seconds) animals spent on licking/flinching the affected paws every 5 min for 45 min. Capsaicin-induced spontaneous pain was aslo assessed for 10 min. […] It was determined the 50% paw withdrawal threshold using Dixon's up-down method^40. […] The percent maximal possible antinociceptive effect (% M.P.E) was calculated using the equation % M.P.E.=[(PL−BL2)/(BL1−BL2)]×100. […]

Question: `CC[C@@H](O)/C=C/C=C\C[C@@H](O)/C=C/C=C/C=C\[C@@H](O)CCCC(=O)O` [RvE1, 5S,12R,18R-trihydroxyeicosapentaenoic acid] was tested. Which “CRG-induced edema (paw volume)” value (CRG-induced edema) did it give?
Answer: reducing

Question: And the “neutrophil infiltration (MPO activity)” value (neutrophil infiltration)?
Answer: reducing

Question: What about the “TNF-α- and capsaicin-elicited increases in phosphorylation of ERK (pERK)” value [1] of the same compound?
Answer: abolished

Question: And the postoperative pain [2]?
Answer: effectively abolish
